Calls of active or inactive are those of the source.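 Rule for the calls: active = fitted curve reaches 40% activation at a concentration no higher than the top valid tested dose; inconclusive = flat fit between 30% and 70% activation, or poor fit; inactive = uptake decrease, flat fit within 30% of zero, the rest.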
Each compound was assayed against Scavenger receptor class B member 1 (Mus musculus) (UniProt Q61009) (assay: enhancers of DiI-HDL lipid transfer via SR-BI – cell-based, ldlA[mSR-BI] CHO, DiI fluorescence, cherry-pick, dose response (AID 602191;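 note: cell fluorescence from internalized DiI-labeled HDL after washing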;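 for AC40: potency of activators raising HDL uptake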;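 for activation (HDL uptake increase): 0% = median of DMSO wells and 100% = twice the DMSO signal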)). Details: ldlA[mSR-BI] CHO cells, 3 h, at 35 µM (top of the series).
Sequence of Scavenger receptor class B member 1 (Mus musculus) (Q61009 whole entry, looked up): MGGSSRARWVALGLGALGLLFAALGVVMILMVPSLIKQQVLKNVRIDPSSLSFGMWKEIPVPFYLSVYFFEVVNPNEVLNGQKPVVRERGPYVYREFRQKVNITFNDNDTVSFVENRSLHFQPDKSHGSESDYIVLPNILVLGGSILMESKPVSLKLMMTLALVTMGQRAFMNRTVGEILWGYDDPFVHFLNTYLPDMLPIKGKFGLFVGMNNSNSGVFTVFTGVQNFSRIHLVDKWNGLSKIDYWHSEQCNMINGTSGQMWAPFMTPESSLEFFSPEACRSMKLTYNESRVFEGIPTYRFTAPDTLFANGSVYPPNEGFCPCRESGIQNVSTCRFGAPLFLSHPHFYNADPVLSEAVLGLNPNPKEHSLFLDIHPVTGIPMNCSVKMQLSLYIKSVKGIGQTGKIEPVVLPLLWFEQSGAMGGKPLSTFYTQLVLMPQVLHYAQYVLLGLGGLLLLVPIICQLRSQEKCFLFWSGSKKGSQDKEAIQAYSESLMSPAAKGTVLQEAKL

Structure (SMILES)	activation (HDL uptake increase)
CC1CCc2c(C(=O)NCCN3CCOCC3)csc2C1 (configuration not stated)	-15.7% (inactive)
COc1cccc(N2CCN(c3ccc4nnc(CCC(=O)Nc5cc(C)ccn5)n4n3)CC2)c1	-11.4% (inactive)
COc1ccccc1CN(C(=O)CCl)C(C(=O)NC1CCCCC1)c1ccncc1 (configuration not stated)	3.52% (inactive)
O=C1CCC(C(=O)N2CCCCCCC2)CN1Cc1cccc(C(F)(F)F)c1 (configuration not stated)	-0.452% (inactive)
COc1ccccc1-c1nc(SCC(=O)Nc2ccccc2F)n[nH]1	-24.3% (inactive)
CCOc1ccc(CNC(=O)CCS(=O)(=O)c2ccc3c(c2)oc(=O)n3C)cc1	8.83% (inactive)
Nc1nonc1-n1nnc(C(=O)N/N=C/c2cccs2)c1CSc1ccccc1	-1.92% (inactive)
CCCCn1c(N)c(N(CCOC)C(=O)C2CC(=O)N(Cc3ccco3)C2)c(=O)[nH]c1=O (configuration not stated)	0.156% (inactive)
O=C(COC(=O)c1ccco1)c1ccc(S(=O)(=O)N2CCCCC2)cc1	-16.4% (inactive)
COC(=O)c1oc2ccc(Br)cc2c1NC(=O)CN1CCN(C)CC1	4.26% (inactive)
CCOc1ccc(S(=O)(=O)N2CCN=C2c2ccccc2)c(C)c1C	-9.83% (inactive)
CC1CCN(S(=O)(=O)c2ccc3c(c2)c(=O)c(C(=O)N2CCCCC2)cn3C)CC1	-8.34% (inactive)
O=C(NCCCCc1ccccc1)C1CC(c2cccc(F)c2)=NO1 (configuration not stated)	-4.48% (inactive)
NC(=O)C1CCN(C(=O)c2ccc(NS(=O)(=O)c3ccc(F)c(F)c3)cc2)CC1	-2.55% (inactive)
O=C(c1ccc(CS(=O)Cc2ccccc2Cl)o1)N1CCN(C2CCCCC2)CC1 (configuration not stated)	2.09% (inactive)
CCCCc1nc2cc(C(=O)NCc3ccccn3)ccc2o1	-3.25% (inactive)
O=C(COC(=O)/C=C/c1cccc(Cl)c1)NCCc1ccc(Cl)cc1Cl	-1.95% (inactive)
CCN(CC)C(=O)C1CC(=O)N(c2ccc(OC)cc2)C1c1ccc(OC)cc1 (configuration not stated)	-8.42% (inactive)
O=C1NC2NC(=O)N(C(Cc3ccccc3)C(=O)O)C2N1 (configuration not stated)	-4.43% (inactive)
Cc1cc(C)c2[nH]c(=O)c(CN(CC3CCCO3)C(=O)c3cnccn3)cc2c1 (configuration not stated)	-7.36% (inactive)
CC(C)CCNC(=O)c1onc(CSc2ccncc2)c1C(=O)NCCC(C)C	3.64% (inactive)

Structure (SMILES)	activation (HDL uptake increase)
COC(=O)C1=C(c2ccc(F)cc2OCc2ccccc2)C[C@@H]2CC[C@H]1N2C(=O)N1CCC(O)CC1	-7.61% (inactive)
Cc1ccc(N(CC(=O)NC2CCC(C)CC2)S(=O)(=O)c2cccnc2)cc1 (configuration not stated)	6.17% (inactive)
Cc1ccc(S(=O)(=O)NC(=O)Nc2nnc(C3CC3)s2)cc1	9.12% (inactive)
O=S(=O)(c1ccccc1)N1CCN(Cc2c(O)ccc3ccccc23)CC1	-12% (inactive)
COC1CCCN(Cc2c(C(=O)N3CCN(C4CCCCC4)CC3)nc3ccccn23)C1 (configuration not stated)	-7.41% (inactive)
O=C1C2C3C=CC(C4CC34)C2C(=O)N1c1nccs1 (configuration not stated)	-0.437% (inactive)
O=C(NCc1cccc(Cl)c1)c1ccc(CS(=O)Cc2ccccc2Cl)o1 (configuration not stated)	0.636% (inactive)
O=C1CCCCN1CCC(=O)N1CCCC(Nc2ccccc2)C1 (configuration not stated)	4.76% (inactive)
Cc1ccc(OCCOCCN(C)C)c(Cl)c1	3.89% (inactive)
O=C(NCc1ccccc1)C1=C[C@H](c2coc3ccccc3c2=O)C[C@H](OCc2ccc(CO)cc2)O1	-1.3% (inactive)
CCCn1c(N)c(N(CCOC)C(=O)c2ccc(S(=O)(=O)N3CCOCC3)cc2)c(=O)[nH]c1=O	-4.96% (inactive)
Cc1cccc(NC(=O)CCC(=O)OCc2ccc(Br)cc2)c1	-7.9% (inactive)
NCCc1nnc(SCc2ccccc2)o1	5.16% (inactive)
CC(=O)c1cccc(S(=O)(=O)NCCCN2CCOCC2)c1	-4.98% (inactive)
COc1ccc(C(=O)NNS(=O)(=O)c2ccccc2)cc1OC	-10.5% (inactive)
COc1ccc(C(=O)NC(=O)CSc2nc3nc(C)cc(C)n3n2)cc1	-8.5% (inactive)
COc1ccc(-n2nc(C(=O)N3CCN(Cc4ccc5c(c4)OCO5)CC3)c3ccccc3c2=O)cc1	-5.05% (inactive)
CCc1ccc2[nH]c(=O)c(CN(CCN(C)C)C(=O)Nc3ccccc3OC)cc2c1	-2.31% (inactive)
CCN1CCN(C(=O)C2CCC(=O)N(Cc3cccc(C(F)(F)F)c3)C2)CC1 (configuration not stated)	-0.502% (inactive)
COc1ccccc1C(=O)NC(=O)COC(=O)c1cccc(NC(C)=O)c1	-5.38% (inactive)

Same assay, conditions: ldlA[mSR-BI] CHO cells, DiI-HDL uptake fluorescence, 3 h

Structure (SMILES)	AC40
NC(=O)c1ncn([C@@H]2O[C@H](CN=C3NS(=O)(=O)c4ccccc43)[C@@H](O)[C@H]2O)n1	> 35 µM (inactive)

From PubChem BioAssay AID602191 (Broad Institute, 2012)
